Test in all cases: NCI anticancer screen, dose series, 48 h
For assay [1], the system named is ACHN renal.
The subject of assay [2] is M14 melanoma.
Assay [3] relates to MCF7 breast.
In assay [4] the test system is MDA-MB-231 breast.
Assay [5] concerns OVCAR-3 ovarian.
Assay [6] deals with OVCAR-5 ovarian.
The subject of assay [7] is PC-3 prostate.
The test system of assay [8] is RPMI-8226 leukemia.
In assay [9] the test system is SK-MEL-28 melanoma.
Assay [10] deals with SNB-19 CNS.
Assay [11] relates to SW-620 colon.
Assay [12] deals with U251 CNS.

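Where inhibition never reached the appropriate level, the endpoint shown equals the highest concentration tested. Otherwise, values were interpolated linearly from a five-concentration, 48-hour dose response in 96-well plates. TGI denotes the concentration required for complete inhibition of growth.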

The values that follow come from PubChem BioAssay (NCI).

For the compound `C=C(C(=O)O)[C@@H]1C[C@@H]2O[C@H]1CC(C)=CCC/C(C)=C/CC[C@@]2(C)O`, the TGI in [1], in assay [2], in assay [3], in assay [4], in assay [5] and in [6] was greater than 100 µM in each case. Besides, the TGI in [7], in [8], in assay [9], in assay [10], in [11] and in assay [12] was greater than 100 µM each time.

In the case of `NC(CCCCNC(=O)C(Cc1ccccc1)NC(=O)OCc1ccccc1)C(=O)NC(CCCCNC(=O)C(Cc1ccccc1)NC(=O)OCc1ccccc1)C(=O)NC(CCCCNC(=O)C(Cc1ccccc1)NC(=O)OCc1ccccc1)C(=O)NC(CCCCNC(=O)C(Cc1ccccc1)NC(=O)OCc1ccccc1)C(=O)NC(CCCCNC(=O)C(Cc1ccccc1)NC(=O)OCc1ccccc1)C(=O)NC(CCCCNC(=O)C(Cc1ccccc1)NC(=O)OCc1ccccc1)C(=O)O` (stereo not given), the TGI in [1], in assay [2], in [3], in assay [4], in assay [5] and in assay [6] was greater than 100 µM throughout. Moreover, the TGI in assay [7], in assay [8], in [9], in [10], in assay [11] and in assay [12] was greater than 100 µM in each case.

Turning to `CCn1cnc2c(NC(C)=O)ncnc21`, the TGI in assay [1], in assay [2], in assay [3], in [4], in assay [5] and in assay [6] was greater than 100 µM throughout. Besides, the TGI in assay [7], in assay [8], in assay [9], in assay [10], in [11] and in [12] was greater than 100 µM each time.

Regarding `CCCCCCCCCCCCP(=O)(O)OCC(N)C(=O)O` (stereo not given), the TGI in assay [1] is greater than 100 µM; in [2], greater than 100 µM; in [3] it was greater than 100 µM; in assay [4], 65.3 µM; in [5], 36.5 µM; in assay [6], greater than 100 µM. The TGI in assay [7] is 36.9 µM; in assay [8], 91.9 µM; in assay [9], greater than 100 µM; in [10] it was 44.7 µM; in assay [11], greater than 100 µM; in [12], 24.8 µM.

For `Cc1cc2[nH]c3c(C#N)c(-c4ccccc4)c(CN4CCOCC4)c(=O)n3c2cc1C`, the TGI in assay [1], in assay [2], in [3], in assay [4], in [5] and in [6] was greater than 100 µM in each case. For the same compound, the TGI in assay [7], in assay [8], in [9], in [10], in assay [11] and in assay [12] was greater than 100 µM each time.

With `O=C(O)C(F)(OC(F)(F)C(F)(OC(F)(F)C(F)(F)C(F)(F)F)C(F)(F)F)C(F)(F)F` (stereo not given), the TGI in assay [1], in [2], in assay [3], in [4], in assay [5] and in [6] was greater than 100 µM in each case. In addition, the TGI in assay [7], in assay [8], in [9], in [10], in [11] and in [12] was greater than 100 µM each time.

As to `CCOC1SC(SC)=NN1C(=O)C(OC(C)=O)C(OC(C)=O)C(OC(C)=O)C(OC(C)=O)C(=O)N1N=C(SC)SC1OCC` (stereo not given), the TGI in assay [1], in [2], in [3], in [4], in [5] and in assay [6] was greater than 100 µM throughout. The TGI in assay [7], in [8], in assay [9], in [10], in [11] and in [12] was greater than 100 µM in each case.

`O=C1O[C@H]2[C@@H]3OC(=O)c4cc(O)c(O)c(O)c4-c4c(cc(O)c(O)c4O)C(=O)OC[C@H]2O[C@@H](OC(=O)c2cc(O)c(O)c(O)c2)[C@@H]3OC(=O)c2cc(O)c(O)c3c2[C@@H]2C1=CC(=O)C(O)(O)C2(O)O3` (stereo not given in full): the TGI is greater than 100 µM in [1]; greater than 100 µM in assay [2]; 50.6 µM in assay [3]; 40.2 µM in assay [4]; greater than 100 µM in [5]; 67.1 µM in [6]. Also, the TGI in assay [7] is greater than 100 µM; in assay [8], greater than 100 µM; in [9], greater than 100 µM; in assay [10] it was greater than 100 µM; in assay [11], 38.5 µM; in assay [12], 33.5 µM.

Consider `O=C1C[C@H]2[C@H](c3ccc(Br)cc3)[C@H]3C(=O)c4ccccc4NC(=O)[C@@H]3[C@@]2(O)c2ccccc2N1`, for which the TGI in assay [1] is 97.7 µM; in [2], 29 µM; in [3], 77.2 µM; in [4], 36.1 µM; in assay [5] it was 37 µM; in [6], 91.9 µM. Also, the TGI in [7] is greater than 100 µM; in assay [8], 62.4 µM; in assay [9] it was greater than 100 µM; in assay [10] it was greater than 100 µM; in [11], greater than 100 µM; in [12] it was greater than 100 µM.

With `CCCCP(CCCC)(CCCC)=C(C(=O)OC)C(C(=O)OC)=C1SC(C(=O)OC)=C(C(=O)OC)S1`, the TGI in assay [1] came out at 54.3 µM; in assay [2], 30.2 µM; in assay [3], 30.9 µM; in [4] it was 35.7 µM; in assay [5] it was 53.1 µM; in assay [6], 52.5 µM. For the same compound, the TGI in assay [7] is 51 µM; in [8] it was greater than 100 µM; in [9] it was 29.8 µM; in [10], 49 µM; in assay [11], 87 µM; in [12], 29.5 µM.
